Results from patent US20200376068A1, “PROTECTION OF NORMAL TISSUE IN CANCER TREATMENT” (THOMAS JEFFERSON UNIVERSITY, priority 2017, published 2020).
Bridge positions count the residues as written; N and C are the ends. Ends that are not written are not given here. Peptide text beside a SMILES is read from it.

Columns and labels:
[1] = molecular target: guanylate cyclase (ST receptors) (Homo sapiens, UniProt P25092); conditions: relative to native ST; cited from earlier work
[2] = system: HCT116 cells (parental); assay: Colony formation assay after irradiation; assay type: cell-based, human; conditions: parental HCT116, 0-4 Gy, 500 μM for 7 d before and after irradiation, vs PBS
Description: (§1) HCT116 and HCT116 p53-null cells were plated in 6-well dishes at 1×10^4 cells/well followed by treatment for 7 d with vehicle or cell permeable cGMP (8-Br-cGMP, 500 μM). Media containing different treatments were changed every other day. After exposure to radiation (0-4 Gy) cells were trypsinized and plated in 6-well dishes at different densities depending on the potency of the treatments (10^4 cells/well for HCT116 exposed at 0, 1 and 2 Gy; 4×10^4 cells/well for HCT116 p53-null exposed at 0, 1 and 2 Gy; 50×10^4 cells/well for HCT116 exposed at 3 and 4 Gy; 200×10^4 cells/well for HCT116 p53-null exposed at 3 and 4 Gy). […] The number of colonies, defined as >50 cells/colony were counted, and the surviving fraction was calculated as the ratio of the number of colonies in the treated sample to the number of colonies produced by cells that were not irradiated. […]
(§2) Statistical significance was determined by unpaired two-tailed Student's t test unless otherwise indicated. […] Survival and disease-free survival were analyzed by Kaplan-Meier analysis. Body weight was analyzed using a frailty model combining a segmented linear longitudinal model of body weight, a log-normal model for survival time, and a log-normal model for random break point for body weight (inflection point). […] Colony formation was analyzed by a pairwise comparison in four treatments with isotherm slopes by linear regression.

[3] = system: HCT116 p53-null cells; assay: Colony formation assay after irradiation; assay type: cell-based, human; conditions: 0-4 Gy, 500 μM, vs PBS
Description: as §1, §2

[4] = system: HCT116 p53-null cells; assay: Anaphase bridge index and aneuploidy after 5 Gy; assay type: cell-based, human; conditions: pretreatment 500 μM
Description: (§3) Cells preconditioned with 8-Br-cGMP, or control cells, were irradiated (5 Gy), then seeded on coverslips in 24-well plates (5×10^4 cells per well). ABI and aneuploidy were quantified 2 d after irradiation.
(§4) ABI: Cells were fixed in 4% PFA and stained with DAPI. Anaphase cells were analyzed and abnormal anaphase cells were calculated under a fluorescence microscope. More than 200 anaphase cells were analyzed in each treatment group in each independent experiment. Any abnormal anaphase cells with anaphase bridges or anaphase lag showing extended chromosome bridging between two spindle poles were enumerated and the ABI was calculated as percentage of abnormal anaphase cells over total anaphase cells.
(§5) Aneuploidy: Cells were fixed in 4% PFA and stained with DAPI, and immunofluorescence stains were performed using α/β-tubulin-specific antibodies and […] γ-tubulin antibodies, detected with Alexa Fluor® 555 or Alexa Fluor® 488 labeled secondary antibodies from Invitrogen. […] Abnormal anaphase chromatids were counted if cells contained more than two centrosomes or two centrosomes located in the same direction to the spindle midzone separated from kinetochores at the poles.

[5] = system: HCT116 human colon carcinoma cells (parental); assay: Anaphase bridge index and aneuploidy after 5 Gy; assay type: cell-based; conditions: pretreatment 500 μM
Description: as §3, §4, §5

[6] = system: Grp78 (BiP); assay: Crypt ER stress, Grp78 (BiP) expression; assay type: in vivo, mouse; conditions: Gucy2c−/− mice
Description: (§6) Gucyc^−/− (Glucy2^ctm1Gar[63]), Lgr5-EGFP-CreERT2 (B6.129P2-Lgr5^tm1(cre/ERT2)Cle/J; Jax, Bar Harbor, Me., #008875) and Rosa-STOP^fl-LacZ (B6.129S4-Gt(ROSA)26Sor^tm1Sor/J; Jax #003474) transgenic mouse lines were interbred to generate offspring with the desired alleles. All mice were co-housed and Gucy2c^+/+ (wild type) littermates with the appropriate alleles were used as controls. Tissues were harvested from adult mice (12-16 wk of age). Cre was induced with a single 200 μL dose of tamoxifen (Sigma; Billerica, Mass.; T5648) in sunflower oil at 10 mg/ml. Tauroursodeoxycholic Acid (TUDCA, Millipore 580549) treatments were administered daily for 3 d at 100 mg/kg/day intraperitoneally. Mice were exposed to a single 10 Gy dose of whole-body γ-irradiation with a PanTak, 310 kVe x-ray machine and tissues were harvested at noted time points after irradiation. In some experiments, mice were gavaged daily for 7 d with 100 μL of 20 mM 8-cpt-cGMP. Each point in a graph (n) represents one mouse unless otherwise noted. All animal protocols were approved by the Thomas Jefferson University Institutional
Intestines were harvested from mice, fixed in formalin, and embedded in paraffin as previously described. […] At least 4 intestinal circumference sections were evaluated per mouse.

[7] = system: intestinal stem cells (ISCs); assay: Quantification of crypt Lgr5+GFP+ and Bmi1+ stem cells in Gucy2c−/− mice; assay type: in vivo, mouse
Description: as §6
Intestines were harvested from mice, fixed in formalin, and embedded in paraffin as previously described. Sections (4 μM) were cut then rehydrated in a sequential ethanol-to-water bath and stained with hematoxylin and eosin or antigen-specific primary and secondary antibodies. Primary antibodies for immunofluorescence included: anti-GFP, anti-Bmi1, and anti-GRP78 (Abcam; Cambridge, M A); anti-phospho VASP Ser239 (Sigma; Billerica, Mass.); and anti-GUCY2C (prepared and validated in-house). Secondary antibodies were from Life Technologies (Waltham, Mass.) and specific to the primary hosts. Tyramide signal amplification was used to detect GUCY2C; secondary antibodies conjugated to horseradish peroxidase were from Jackson immunoresearch Laboratories (cat #115-035-206 and #111-036-046, 1:1000 dilution), and fluorescein-conjugated tyramine was prepared from tyramine HCl (cat #T2879, Sigma) and NHS-fluorescein (cat #46410, Thermo Scientific) as described. For visualization of Rosa-LacZ lineage tracing, tamoxifen-induced recombinant Cre intestines were prepared as described previously. At least 4 intestinal circumference sections were evaluated per mouse.

[8] = system: p53; assay: Immunoblot of total and phosphorylated p53 in irradiated HCT116 cells; assay type: cell-based, human; conditions: 5 Gy radiation, 500 μM
[9] = system: p53-Mdm2 interaction; assay: Immunoprecipitation of p53-Mdm2 in irradiated HCT116 cells; assay type: cell-based, human; conditions: 5 Gy radiation, IP and Western Blot
Description: McCoy's 5A and Dulbecco's Modified Eagle Medium (DMEM) containing 10% fetal bovine serum and other reagents for cell culture were obtained from Life Technologies (Rockville, Md.). 8-Bromoguanosine 3′, 5′-cyclic monophosphate (8-Br-cGMP), a cell-permeant analog of cGMP, was obtained from Sigma (St. Louis, Mo.) and 500 μM was used in all experiments (18,20,25,26,34).
Mouse IgG (5 μg, cat. #10400C, Invitrogen) and rabbit IgG (5 μg, cat. #10400C, Invitrogen) were isotype controls for immunoprecipitation.

[10] = system: irradiated intestinal tissue; conditions: mice lacking genes encoding GCC or uroguanylin; cited from earlier work
[11] = system: patients with irritable bowel syndrome; conditions: oral; cited from earlier work
[12] = cited from earlier work
[13] = system: intestinal crypts; assay: Ex vivo enteroid formation from crypts; assay type: cell-based, mouse; conditions: crypts of Gucy2c+/+ mice, oral linaclotide
Description: Crypt isolation for subsequent analyses (enteroid assay, florescence-activated cell sorting (FACS), immunoblot) was performed using a variation of the chelation dissociation method. Briefly, intestines were harvested, villi were gently scraped off for the small intestine, and tissues were minced and incubated in a 10 mM EDTA/Ca-free, Mg-free Hank's Balanced Salt Solution (HBSS) on ice for a total of 40 min, Throughout this time, solutions were intermittently shaken by hand at the speed of two shakes/second, supernatant was disposed a total of six times, and fresh EDTA/HBSS was added after each disposal. Tissue was incubated undisturbed for 30 min on ice followed by vigorous pipetting with a 10 mL pipet to dissociate the remaining crypts. Crypts were filtered through a […] strainer and pelleted. For enteroid culture, the same number of crypts for each genotype (ranging from 300-1500 crypts/well) were resuspended in a matrigel droplet (BD, 354230), pipetted briefly with a 1000 μL micropipette, plated in 30 μL, and overlaid with 350 μL of intesticult media (Stem Cell Technologies, Vancouver. Canada: 06005). For FACS, crypts were incubated in 0.25% trypsin (Thermo Scientific, Philadelphia, Pa.; 15050065) at 37° C. until a single cell suspension was obtained (not more than 10 min). Cells were then filtered a second time using a 40 μM strainer and kept in EDTA solution for sorting.

guanylate cyclase (ST receptors), sequence (P25092 24-1073): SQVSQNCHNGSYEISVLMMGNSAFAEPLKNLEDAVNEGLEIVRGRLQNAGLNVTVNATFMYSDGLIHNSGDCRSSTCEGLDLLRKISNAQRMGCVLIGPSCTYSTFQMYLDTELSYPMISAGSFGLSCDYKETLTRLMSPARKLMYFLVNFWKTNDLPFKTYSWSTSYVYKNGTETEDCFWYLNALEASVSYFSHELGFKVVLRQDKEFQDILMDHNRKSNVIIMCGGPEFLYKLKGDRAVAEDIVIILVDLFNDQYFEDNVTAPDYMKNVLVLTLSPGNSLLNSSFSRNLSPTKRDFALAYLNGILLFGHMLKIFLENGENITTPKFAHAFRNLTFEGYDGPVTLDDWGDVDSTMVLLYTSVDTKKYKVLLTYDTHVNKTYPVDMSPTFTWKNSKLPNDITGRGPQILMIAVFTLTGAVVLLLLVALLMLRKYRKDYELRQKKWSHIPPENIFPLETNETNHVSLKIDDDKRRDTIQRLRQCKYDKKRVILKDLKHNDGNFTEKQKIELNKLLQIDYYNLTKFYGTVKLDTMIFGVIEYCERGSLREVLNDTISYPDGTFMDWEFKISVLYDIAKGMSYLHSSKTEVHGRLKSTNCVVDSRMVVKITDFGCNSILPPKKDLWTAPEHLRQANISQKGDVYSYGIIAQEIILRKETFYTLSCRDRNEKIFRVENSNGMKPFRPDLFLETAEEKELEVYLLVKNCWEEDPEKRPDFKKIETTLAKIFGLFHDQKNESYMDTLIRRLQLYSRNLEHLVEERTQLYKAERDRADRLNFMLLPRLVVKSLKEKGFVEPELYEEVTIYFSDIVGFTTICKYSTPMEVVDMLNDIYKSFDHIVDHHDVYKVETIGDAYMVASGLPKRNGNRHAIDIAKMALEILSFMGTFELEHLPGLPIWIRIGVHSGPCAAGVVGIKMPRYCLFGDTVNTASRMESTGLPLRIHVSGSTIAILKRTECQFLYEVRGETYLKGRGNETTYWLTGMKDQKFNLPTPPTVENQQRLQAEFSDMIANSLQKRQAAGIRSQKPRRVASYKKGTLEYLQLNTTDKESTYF

Guanylin: 15 amino acid peptide from mammalian intestine, about 50% sequence homology to ST; endogenous GCC agonist (PGTCEICAYAACTGC; ends and bridges not checked; cysteine pairing not given here; UniProt Q02747 101-115, looked up)
activates guanylate cyclase at a level less than native ST [1]: 10- to 100 fold

Nc1nc2c(nc(Br)n2[C@@H]2O[C@@H]3COP(=O)(O)O[C@H]3[C@H]2O)c(=O)[nH]1 [8-Br-cGMP, 8-Bromoguanosine 3′, 5′-cyclic monophosphate]
cytogenetic toxicity induced by increasing doses of radiation, quantified by colony formation [2]: reduced | cytogenetic toxicity induced by increasing doses of radiation, quantified by colony formation [3]: not significant | chromosomal instability quantified by anaphase bridge index [4]: insensitive | chromosomal instability quantified by centrosome counts (aneuploidy) [4]: insensitive | chromosomal instability quantified by anaphase bridge index [5]: reduced | chromosomal instability quantified by centrosome counts (aneuploidy) [5]: reduced | BiP (Grp78) expression in crypts [6]: mimicked | Bmi1+ cells in crypts [7]: comparable to those in Gucy2c^+/+ mice | Lgr5+GFP+ cells in crypts [7]: comparable to those in Gucy2c^+/+ mice | phosphorylated p53 [8]: increased | total p53 [8]: increased | p53-Mdm2 interaction [9]: disrupting | p53 activation [9]: increased

cGMP
level of apoptosis in irradiated intestinal tissue [10]: ameliorated

C[C@H](CCC(=O)NCCS(=O)(=O)O)[C@H]1CC[C@H]2[C@@H]3[C@@H](O)C[C@@H]4C[C@H](O)CC[C@]4(C)[C@H]3CC[C@]12C [TUDCA, tauroursodeoxycholic acid]
BiP (Grp78) expression in crypts [6]: restored normal BiP expression | Bmi1+ cells in crypts [7]: restored | Lgr5+GFP+ cells in crypts [7]: restored

C[C@@H]1NC(=O)[C@@H]2CCCN2C(=O)[C@H](CC(N)=O)NC(=O)[C@@H]2CSSC[C@H](N)C(=O)N[C@H]3CSSC[C@H](NC1=O)C(=O)N[C@@H]([C@@H](C)O)C(=O)NCC(=O)N[C@H](C(=O)N[C@@H](Cc1ccc(O)cc1)C(=O)O)CSSC[C@H](NC(=O)[C@H](Cc1ccc(O)cc1)NC(=O)[C@H](CCC(=O)O)NC3=O)C(=O)N2 [linaclotide] (H-CCEYCCNPACTGCY-OH; disulfide 1-6, 2-10, 5-13)
abdominal pain [11]: relieve | constipation [11]: improve | oral bioavailability or bioactivity outside the GI tract [12]: negligible | efficiency of enteroid formation [13]: amplified

CC(C)C[C@H](NC(=O)[C@@H]1CSSC[C@@H]2NC(=O)[C@H](CC(C)C)NC(=O)[C@H](CCC(=O)O)NC(=O)[C@@H](NC(=O)[C@H](CCC(=O)O)NC(=O)[C@H](CC(=O)O)NC(=O)[C@@H](N)CC(N)=O)CSSC[C@H](NC(=O)[C@H](C)NC(=O)[C@H](C(C)C)NC(=O)[C@H](CC(N)=O)NC(=O)[C@H](C(C)C)NC2=O)C(=O)N[C@@H]([C@@H](C)O)C(=O)NCC(=O)N1)C(=O)O [plecanatide] (H-NDECELCVNVACTGCL-OH; disulfide 4-12, 7-15)
abdominal pain [11]: relieve | constipation [11]: improve | oral bioavailability or bioactivity outside the GI tract [12]: negligible
